The text below walks through data of ChEMBL document CHEMBL4414573, “Competitive Binding Assay with an Umbelliferone-Based Fluorescent Rexinoid for Retinoid X Receptor Ligand Screening” (J Med Chem, 2019).

The assay concerns the target T1, Retinoic acid receptor RXR-alpha (Homo sapiens, UniProt P19793).
T1 sequence (P19793 whole entry): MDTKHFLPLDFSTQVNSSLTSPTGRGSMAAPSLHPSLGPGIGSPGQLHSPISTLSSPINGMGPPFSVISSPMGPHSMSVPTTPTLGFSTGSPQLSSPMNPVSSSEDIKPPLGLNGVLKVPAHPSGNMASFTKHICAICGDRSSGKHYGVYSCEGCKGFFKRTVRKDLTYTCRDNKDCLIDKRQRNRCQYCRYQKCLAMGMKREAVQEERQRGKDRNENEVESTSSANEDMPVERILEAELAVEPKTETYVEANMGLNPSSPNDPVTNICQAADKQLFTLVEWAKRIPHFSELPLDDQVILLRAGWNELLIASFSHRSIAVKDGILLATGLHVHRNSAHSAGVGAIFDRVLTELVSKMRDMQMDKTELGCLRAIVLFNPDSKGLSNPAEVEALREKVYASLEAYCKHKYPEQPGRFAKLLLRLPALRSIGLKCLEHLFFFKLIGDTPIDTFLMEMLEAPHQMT
The assay can be described thus: Displacement of CU-6PMN from human RXRalpha LBD incubated for 2 hrs by fluorescence based assay.

By Ki is commonly meant a measure of affinity in units of concentration, obtained from inhibition or displacement. Consider `CC/C=C\C/C=C\C/C=C\C/C=C\C/C=C\CCCC(=O)O` [ICOSAPENT], for which the inhibition constant Ki (read-out: Ki) was determined as 7.63 µM.

As to `CCCCCCCCCCCCCCCC(=O)O` [PALMITIC ACID], the Ki result is reported as “Not Active”.
